Values after ≈ are worked out from the molar mass of the structure shown. Where two headings read alike, the source gives them in different places. Bridge positions count the residues as written; N and C are the ends. Ends that are not written are not given here. Peptide text beside a SMILES is read from it.
Columns and labels:
[1] = tested on: E. coli ATCC 25922; conditions: for MIC-E. coli (μM) 25922: Table 6; for MIC-E.Coli (μM) 25622: Table 9 lower part, c1
[2] = tested on: X. fastidiosa (PD strain)
[3] = tested on: Pseudomonas WT 27853; conditions: for MIC-human (μm) Pseudomonas WT 27853: Table 9 lower part, c5
[4] = tested on: human erythrocytes
[5] = tested on: Salmonella; conditions: for MIC-human (μm) Salmonella: Table 9 lower part, c4
[6] = tested on: N. benthamiana mesophyll protoplasts
[7] = tested on: HL60 cells
[8] = tested on: E.Coli 14028; conditions: Table 9 lower part, c2
[9] = tested on: P11-resistant E. coli BL21
[10] = tested on: P11-resistant E. coli ATCC 25922
[11] = tested on: X. fastidiosa (Xf) in infected grapevines; conditions: in vivo
[12] = tested on: Xanthomonas Perforans BAA983
[13] = tested on: Pseudomonas Resistant BAA-2114
[14] = tested on: Xanthomonas Euvesicatoria 11633
[15] = tested on: human and plant gram-negative bacteria
[16] = tested on: human cells (red blood cells, immune cells HL-60, lung/skin epithelial cells)
[17] = tested on: E. coli BL21; conditions: Table 3, BL21-WT
[18] = tested on: E. coli K12; conditions: Table 3, K12-WT
[19] = tested on: P11-resistant E. coli K12; conditions: Table 3, K12-R

Compound: CC[C@H](C)[C@@H]1NC(=O)[C@H](CCCCN)NC(=O)[C@H](CC(C)C)NC(=O)[C@H]([C@@H](C)CC)NC(=O)[C@H](CCCCN)NC(=O)[C@H](CCCCN)NC(=O)[C@H]([C@@H](C)CC)NC(=O)[C@H](CC(C)C)NC(=O)[C@H](CCCCN)NC(=O)[C@H](CCCCN)NC(=O)[C@H](CCCNC(=N)N)NC(=O)CNC(=O)[C@@H]2CCCN2C(=O)CNC(=O)[C@H](CCCCN)NC(=O)[C@H](CCCCN)NC(=O)[C@H](CC(C)C)NC(=O)[C@H]([C@@H](C)CC)NC(=O)[C@H](CCCCN)NC(=O)[C@H](CCCCN)NC(=O)[C@H]([C@@H](C)CC)NC(=O)[C@H](CC(C)C)NC(=O)[C@H](CCCCN)NC(=O)[C@H]([C@@H](C)CC)NC(=O)[C@H](CC(C)C)NC(=O)[C@H](CCCNC(=N)N)NC(=O)CNC(=O)[C@@H]2CCCN2C(=O)CNC(=O)[C@H](CC(C)C)NC1=O [CYCLIC30P] (cyclo(GPGRKKLIKKILKILGPGRLIKLIKKILKK))
- MIC-E. coli (μM) 25922 [1]: 12 (2) μM
- MIC-E.Coli (μM) 25622 [1]: 12(2) μM

Compound: CC[C@H](C)[C@H](NC(=O)[C@H](CCCCN)NC(=O)[C@H](CC(C)C)NC(=O)[C@@H]1CSSC[C@H](NC(=O)[C@H](CC(C)C)NC(=O)[C@H](CCCCN)NC(=O)[C@@H](NC(=O)[C@@H](N)CC(C)C)[C@@H](C)CC)C(=O)N[C@@H](CCCCN)C(=O)N[C@@H](CCCCN)C(=O)N[C@@H]([C@@H](C)CC)C(=O)N[C@@H](CC(C)C)C(=O)N[C@@H](CCCCN)C(=O)N[C@@H](CCCCN)C(=O)NCC(=O)N2CCC[C@H]2C(=O)NCC(=O)N[C@@H](CCCNC(=N)N)C(=O)N[C@@H](CCCCN)C(=O)N[C@@H](CCCCN)C(=O)N[C@@H](CC(C)C)C(=O)N[C@@H]([C@@H](C)CC)C(=O)N[C@@H](CCCCN)C(=O)N[C@@H](CCCCN)C(=O)N1)C(=O)N[C@@H](CC(C)C)C(=O)O [CYS26P] (H-LIKLCKKILKKGPGRKKLIKKCLKIL-OH; disulfide 5-22)
- MIC (μM) X. fastidiosa (PD strain) [2]: >20 µM
- MIC-human bacteria (μM) Pseudomonas WT ([3]; Table 9 upper part, c6): >20 µM
- toxicity to human erythrocytes [4]: did not demonstrate toxicity
- MIC-human bacteria (μM) Salmonella ([5]; Table 9 upper part, c5): >20 µM
- phytotoxicity, viability of N. benthamiana mesophyll protoplasts [6]: low phytotoxcicity
- MIC-E. coli (μM) 25922 [1]: 4.3 ± 0.4 µM (≈ 12.9 µg/mL)
- toxicity to HL60 cells [7]: did not demonstrate toxicity

Compound: CC[C@H](C)[C@H](NC(=O)[C@H](CCCCN)NC(=O)[C@H](CC(C)C)NC(=O)[C@@H](NC(=O)[C@H](CCCCN)NC(=O)[C@H](CCCCN)NC(=O)[C@@H](NC(=O)[C@H](CC(C)C)NC(=O)[C@H](CCCCN)NC(=O)[C@@H](N)CCCCN)[C@@H](C)CC)[C@@H](C)CC)C(=O)N[C@@H](CC(C)C)C(=O)NC [Peptide 11P3, KKLIKKILKIL-(NHCH3)] (H-KKLIKKILKIL-NHMe)
- MIC-E. coli (μM) 25922 [1]: 3.7 ± 0.5 µM (≈ 5 µg/mL)

Compound: CC[C@H](C)[C@H](NC(=O)[C@H](CCCNC(=N)N)NC(=O)[C@H](CC(C)C)NC(=O)[C@@H](NC(=O)[C@H](CCCNC(=N)N)NC(=O)[C@H](CCCNC(=N)N)NC(=O)[C@@H](NC(=O)[C@H](CC(C)C)NC(=O)[C@H](CCCNC(=N)N)NC(=O)[C@@H](N)CCCNC(=N)N)[C@@H](C)CC)[C@@H](C)CC)C(=O)N[C@@H](CC(C)C)C(=O)NC [Peptide 11P5, RRLIRRILRIL-(NCH3)] (H-RRLIRRILRIL-NHMe; N-terminus and C-terminus assumed)
- MIC-E. coli (μM) 25922 [1]: 6.7 ± 0.9 µM (≈ 9.99 µg/mL)

Compound: EALRSRLEKRIYILYRDTPVVKSSSRQREELLRISLRELE [Peptide 40P1]
- MIC-E. coli (μM) 25922 [1]: >20 µM

Compound: ELLRRLLASLRRHDLLRGPGRELLRLLASLRRHDLLR [Peptide 38P1]
- MIC-E. coli (μM) 25922 [1]: 2.5 to 5 µM

Compound: HPLIKLIKKILKKGPGRKKLIKKILKILGH [Peptide 30P1]
- MIC-E. coli (μM) 25922 [1]: 0.9 to 1.25 µM

Compound: KEIVRRIEKFLRGPGRKRIVERIEKFLR [Peptide 28P8]
- MIC-plant (μm) Xylela fastidiosa (grape) [2]: 1.25-2.5(2) μM
- MIC-E.Coli (μM) 14028 [8]: 5 to 10 µM
- MIC-human (μm) Pseudomonas WT 27853 [3]: 5 to 10 µM
- MIC-E. coli (μM) 25922 [1]: 0.8 ± 0.1 µM

Compound: KEIVRRIKEFLRGPGRKEIVRRIKEFLR [Peptide 28P7]
- MIC-plant (μm) Xylela fastidiosa (grape) [2]: 2.5-5(2) μM
- MIC-E.Coli (μM) 14028 [8]: 20 µM
- MIC-human (μm) Pseudomonas WT 27853 [3]: 5 to 10 µM
- MIC-E. coli (μM) 25922 [1]: 4.3 µM
- MIC-E.Coli (μM) 25622 [1]: 4.3 µM

Compound: KKLIKKILKIL [Peptide P11, KKLIKKILKIL]
- MIC [9]: 194 ± 12.5 µM
- MIC values BL21 ([9]; BL21): 194 µM
- MIC (μM) X. fastidiosa (PD strain) [2]: 10 to 20 µM
- MIC [10]: 192 ± 8.3 µM
- MIC values ATCC [10]: 200 µM

Compound: KKLIKKILKILGPGRKKLIKEILKILGPGRKKLIKKILKIL [Peptide 41P1]
- MIC-E. coli (μM) 25922 [1]: 4.50 ± 0.25 µM

Compound: KLIKLIKKILKKGPGRKKLIKKILKILK [Peptide 28P4]
- MIC (μM) X. fastidiosa (PD strain) [2]: 3.0 ± 0.1 µM
- MIC-human (μm) Pseudomonas WT 27853 [3]: 1.3 µM
- % Xf clearance from bark by qPCR [11]: completely clear
- % Xf clearance from green leaves by qPCR [11]: completely clear
- MIC-plant (μm) Xanthomonas Perforans BAA983 [12]: 2.5 µM
- MIC-human (μm) Salmonella [5]: 1.3 µM
- MIC-E. coli (μM) 25922 [1]: 2.1 µM
- MIC-E.Coli (μM) 25622 [1]: 2.1 µM
- MIC-human (μm) Pseudomonas Resistant BAA-2114 [13]: 2.5 µM
- MIC-plant (μm) Xanthomonas Euvesicatoria 11633 [14]: 2.5 µM

Compound: KLIRLIREILRRGPGRRRLIREILRILK [Peptide 28P6]
- MIC-plant (μm) Xylela fastidiosa (grape) [2]: 2.5-5(2) μM
- MIC-E.Coli (μM) 14028 [8]: 20 µM
- MIC-human (μm) Pseudomonas WT 27853 [3]: 5 to 10 µM
- MIC-E. coli (μM) 25922 [1]: 4.8 µM
- MIC-E.Coli (μM) 25622 [1]: 4.8 µM

Compound: KRIVQRIKDFLRGPGRKRIVQRIKDFLR [Peptide 28P2]
- MIC-E. coli (μM) 25922 [1]: 6 (2) μM
- MIC-E.Coli (μM) 25622 [1]: 6(2) μM
- MIC against one E. coli strain [15]: 6 µM
- MICs for human and plant bacteria [15]: 1.3 to 3 µM
- concentration toxic to human cells [16]: above 20 μM

Compound: KRLIQRKRLIQRGPGRKRLIQRKRLIQR [Peptide 28P3]
- MIC-human (μm) Pseudomonas WT 27853 [3]: >20 µM
- MIC-plant (μm) Xanthomonas Perforans BAA983 [12]: 20 µM
- MIC-human (μm) Salmonella [5]: >20 µM
- MIC-E. coli (μM) 25922 [1]: >40 µM
- MIC-E.Coli (μM) 25622 [1]: >40 µM
- MIC-human (μm) Pseudomonas Resistant BAA-2114 [13]: >20 µM
- MIC-plant (μm) Xanthomonas Euvesicatoria 11633 [14]: 20 µM

Compound: LIKLIKKILKKGPGRKKLIKKILKIL [Peptide P26]
- MIC ([9]; BL21): 4.4 ± 0.3 µM
- MIC [17]: 1.95 ± 0.3 µM
- MIC [18]: 1.65 ± 0.3 µM
- MIC (μM) X. fastidiosa (PD strain) [2]: 4.75 ± 0.25 µM
- MIC-plant bacteria (μM) Xylela fastidiosa (grape) [2]: >20 µM
- toxicity to human erythrocytes [4]: did not demonstrate toxicity
- MIC [10]: 9.5 ± 0.7 µM
- MIC [19]: 4.0 ± 0.6 µM
- phytotoxicity, viability of N. benthamiana mesophyll protoplasts [6]: low phytotoxcicity
- MIC ([1]; Table 3, ATCC-WT): 1.65 ± 0.3 µM
- MIC-E. coli (μM) 25922 [1]: 1.7 ± 0.2 µM
- toxicity to HL60 cells [7]: did not demonstrate toxicity

Compound: LIRLIRRILRRGPGRRRLIRRILRIL [Peptide 26P2]
- MIC-E. coli (μM) 25922 [1]: 1.3 to 2.5 µM

Compound: LIRLIRRILRRGPGRRRLIRRILRIL [Peptide 26P-1]
- MIC values BL21 ([9]; BL21): 4 µM
- MIC (μM) X. fastidiosa (PD strain) [2]: 4.75 µM
- MIC values ATCC [10]: 10 µM

Compound: LIRLLRRILRRGPGRRRLIRRLLRIL [Peptide 26P3]
- MIC-plant bacteria (μM) Xylela fastidiosa (grape) [2]: 4.8 µM

Compound: RKQLRELIERLLERIRKLGPGRREQLERLIERLERLIEKR [Peptide 40P3]
- MIC-E. coli (μM) 25922 [1]: >20 µM

Compound: RLLEKRLRRELERELRKQGPGRRLLEKRLRRELERELRKQ [Peptide 40P2]
- MIC-E. coli (μM) 25922 [1]: >20 µM

Reference: patent US20220053773A1 (priority 2018, published 2022)
